Read-outs that look alike come from different tables or passages of the source.
Columns and labels:
[1] = biological target: T1, Yeast α-glucosidase enzyme (Saccharomyces cerevisiae, UniProt P53341); experiment: Kinetic study of α-glucosidase inhibition (Lineweaver-Burk and secondary plots); type: biochemical; conditions: for mode of enzyme inhibition: Lineweaver-Burk plots; for Slope: Lineweaver-Burk
Protocol: Lineweaver-Burk plots of the inverted values of velocity (1/V) versus the inverted values of substrate concentration (1/[S]) were prepared. […] To determine the Ki of each amide, we constructed a secondary plot by replotting the reciprocal of Km (1/Km) against inhibitor concentration.
Vacuum liquid chromatography (VLC) and column chromatography (CC) were performed on silica gel 60 (40–63 μm, Merck, Darmstadt, Germany), silica gel 60 (63–200 μm, Merck, Darmstadt, Germany) or Sephadex LH-20 (Pharmacia, Piscataway, NJ, USA) or Diaion HP20 (Mitsubishi Chemical, Tokyo, Japan). For preparative HPLC, a Shim-pack Prep-ODS (No.2025820) column (Shimadzu, Tokyo, Japan), with isocratic 50% methanol in water, SPD-10A UV-Vis detector (Shimadzu, Tokyo, Japan), and flow rate 1 mL/min, was used. NMR spectra were obtained with a Bruker Avance DPX-300 FT-NMR spectrometer (Brucker Corporation, Billerica, MA, USA). High-resolution electrospray ionization mass spectra (HR-ESI-MS) were recorded with a Bruker micro TOF mass spectrometer (Bruker Daltonics, Billerica, MA, USA). Optical rotations were obtained with a PerkinElmer 341 polarimeter (PerkinElmer, Boston, MA, USA). UV spectra were measured on an Agilent Technologies Cary 60 UV-Vis (Agilent, Santa Clara, CA, USA), and IR spectra (Agilent, Santa Clara, CA, USA) were recorded on a Perkin-Elmer FT-IR 1760x spectrophotometer (PerkinElmer, Boston, MA, USA). […] Absorbance in 96-well plates was measured using a microplate reader (Wallac1420 Multilevel counter, Victor3, PerkinElmer).
The kinetic assay of enzyme inhibition was done in a 96-well plate. The enzyme kinetics parameters (Km and Vmax) were obtained by analyzing the double reciprocal Lineweaver-Burk plot (1/V vs. 1/[S]). Each experiment was carried out by varying the concentration of pNPG (2.0, 1.0, 0.5, 0.25, 0.125 mM) in the absence and presence of different concentrations of the test sample. The reaction was monitored at 405 nm by a microplate reader every 5 min for a total time of 30 min. Each experiment was performed in triplicate. […] The inhibition constant (Ki) of each compound was then calculated from the intersection on the abscissa.

[2] = biological target: T1, Yeast α-glucosidase enzyme; conditions: earlier report; cited from earlier work

T1 sequence (P53341 whole entry): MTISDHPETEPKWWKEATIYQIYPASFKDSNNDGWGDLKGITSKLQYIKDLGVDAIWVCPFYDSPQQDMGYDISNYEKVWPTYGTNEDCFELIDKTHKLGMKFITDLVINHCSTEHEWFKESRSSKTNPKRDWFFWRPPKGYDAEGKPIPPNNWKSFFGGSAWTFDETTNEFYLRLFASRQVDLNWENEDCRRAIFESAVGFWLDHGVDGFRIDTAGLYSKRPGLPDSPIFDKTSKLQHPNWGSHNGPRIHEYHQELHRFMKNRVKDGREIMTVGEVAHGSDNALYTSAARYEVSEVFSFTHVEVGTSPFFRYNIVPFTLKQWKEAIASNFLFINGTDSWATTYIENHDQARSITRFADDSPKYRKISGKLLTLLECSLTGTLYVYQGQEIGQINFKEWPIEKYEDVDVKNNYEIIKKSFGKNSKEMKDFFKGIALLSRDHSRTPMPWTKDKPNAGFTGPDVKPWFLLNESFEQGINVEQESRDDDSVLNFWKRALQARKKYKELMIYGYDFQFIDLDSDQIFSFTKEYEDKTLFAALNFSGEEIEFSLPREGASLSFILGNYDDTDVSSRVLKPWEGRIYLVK

Slope ([1]; inhibitor dose 4.0 µM) | Slope ([1]; inhibitor dose 8.0 µM) | Vmax ([1]; inhibitor dose 4.0 µM) | Vmax ([1]; inhibitor dose 8.0 µM) | Compound | mode of enzyme inhibition [1] | Slope ([1]; inhibitor dose 2.0 µM) | Vmax ([1]; inhibitor dose 2.0 µM) | Slope ([1]; inhibitor dose 0.5 µM) | Slope ([1]; inhibitor dose 1.0 µM) | Vmax ([1]; inhibitor dose 0.5 µM) | Vmax ([1]; inhibitor dose 1.0 µM) | mode of enzyme inhibition [2]
37.56 | 36.51 | 0.0044 ΔA405/min | 0.0027 ΔA405/min | COc1cc(/C=C/C(=O)NCCc2ccc(O)cc2)ccc1O [Compound 7, N-trans-feruloyltyramine] | uncompetitive inhibitors | 36.62 | 0.0072 ΔA405/min | – | – | – | – | –
– | – | – | – | O=C(/C=C/c1ccc(O)cc1)NCCc1ccc(O)cc1 [Compound 6, N-trans-coumaroyltyramine] | uncompetitive inhibitors | 35.56 | 0.0018 ΔA405/min | 34.55 | 34.67 | 0.0077 ΔA405/min | 0.0030 ΔA405/min | uncompetitive α-glucosidase inhibition
– | – | – | – | C[C@H]1O[C@H](O[C@H]2[C@H](O)[C@@H](O)[C@@H](O[C@H]3[C@H](O)[C@@H](O)C(O)O[C@@H]3CO)O[C@@H]2CO)[C@H](O)[C@@H](O)[C@@H]1N[C@H]1C=C(CO)[C@@H](O)[C@H](O)[C@H]1O (stereo partly shown) [acarbose, reference compound] | competitive inhibition | – | – | – | – | – | – | –

— paper PMC6099400, “A New Benzophenone C-Glucoside and Other Constituents of Pseuduvaria fragrans and Their α-Glucosidase Inhibitory Activity” (Molecules : A Journal of Synthetic Chemistry and Natural …, 2018)
